The source of these data is ChEMBL document CHEMBL1151544, “Biarylcarboxamide inhibitors of phosphodiesterase IV and tumor necrosis factor-” (Bioorg Med Chem Lett, 1997).

pIC50: −log10 of the molar value.

Assay [1] in a line: Ability to block the release of TNF-alpha in human monocytes. It counts as functional, cell-based.
For assay [2], the species on record is Homo sapiens. Briefly: Ability to block the release of TNF-alpha in human whole blood. It counts as functional.
The target of assay [3] is Phosphodiesterase 4 (Homo sapiens, UniProt P27815+Q08499+Q07343+Q08493). The experiment in a line: Tested for its ability to inhibit the hydrolysis of cAMP by human monocyte cytosol phosphodiesterase. It counts as protein assay.
The test system of assay [4] is U-937. Briefly: Ability to elevate intracellular levels of cAMP in human U937 cells. It counts as functional, cell-based.
The test system of assay [5] is Mus musculus. The experiment in a line: Inhibition of LPS stimulated TNF-alpha release in mice at 1 mg/kg. It counts as functional.
The subject of assay [6] is Mus musculus. Briefly: Inhibition of LPS stimulated TNF-alpha release in mice at 10 mg/kg. It counts as functional.

Usually pIC50 stands for −log10 of the IC50, conventionally taken in molar units. Read a low pIC50 as a large IC50. A word on the IC50: it is the concentration that gives 50% inhibition. Low values mean greater potency in that assay, high ones weaker potency in that assay. Broadly, the inhibition in vivo is the share of the control response that was lost under treatment. Low values mean a response near the control, high ones a response far below the control.

In assay [1], `COc1ccc(-c2ccc(C(N)=O)c(C)c2)cc1OC1CCCC1` had a pIC50 of 6.72.
Consider `COc1ccc(-c2ccc(C(N)=O)cc2)cc1O[C@H]1CC2CCC1C2` (stereo not given in full), for which the pIC50 in assay [1] is 7.62; in assay [2], 6.74; in assay [4], 7.66. Further, the IC50 in assay [3] was 3.61 µM.
Turning to `COc1ccc(-c2ncc(C(N)=O)cc2Cl)cc1OC1CCCC1`, the pIC50 in assay [1] is 6.44.
For the compound `COc1ccc(-c2ccc(C(N)=O)cc2)cc1OC1CCCC1`, the negative logarithm of the IC50 (pIC50) was 7.59 in assay [1], 6.35 in assay [2] and 7.09 in assay [4]. The IC50 in assay [3] is 5.91 µM.
`COc1ccc(-c2ccc(C(N)=O)cc2Cl)cc1OC1CCCC1` had a pIC50 in assay [1] of 6.59.
As to `COc1ccc(-c2ccc(C(N)=O)nc2)cc1O[C@H]1CC2CCC1C2` (stereo not given in full), the values for the negative logarithm of the IC50 (pIC50) in assay [1], in assay [2] and in assay [4] were 8.05, 6.85 and 7.31, respectively. Moreover, in assay [3], the IC50 is 1.07 µM.
For `COc1ccc(-c2ccc(C(N)=O)cc2)cc1OC1Cc2ccccc2C1`, the pIC50 in assay [1] is 6.49.
In the case of `COc1ccc(-c2ccc(C(=O)O)cc2)cc1O[C@H]1CC2CCC1C2` (stereo not given in full), the pIC50 in assay [1] is 6.85. This pIC50 lies 0.36 log units higher than the previous one.
Same read-out and setting: the same measure for `COc1ccc(-c2ccc(C(N)=O)cn2)cc1OC1CCCC1`: 7.10.
In assay [1], `COc1ccc(-c2ccc(C(N)=O)nc2)cc1OCCc1ccccc1` had a pIC50 of 6.74.
The same measure, in the same setting: the same measure for `COc1ccc(-c2ccc(C(N)=O)nc2)cc1OCCCc1ccccc1`: 5.64; for `COc1ccc(-c2ccc(C(N)=O)c(Cl)c2)cc1OC1CCCC1`: 7.09.
Consider `COc1ccc(-c2ccc(C(N)=O)nc2)cc1OC1CCCC1`, for which the negative-log IC50 (pIC50) in assay [1] is 7.43; in assay [2] it was 6.74; in assay [4], 7.34. In assay [5], at 1 mg/kg the inhibition in vivo was 65.2%. This compound yielded an IC50 in assay [3] of 0.34 µM.
For the compound `COc1ccc(-c2ccc(C(N)=O)nc2)cc1OC1Cc2ccccc2C1`, the pIC50 in assay [1] was 6.92.
Still for that read-out and setting: the same measure for `COc1ccc(-c2ccc(C(N)=O)c(C(F)(F)F)c2)cc1OC1CCCC1`: 5.93.
Consider `COc1ccc([C@]2(C#N)CC[C@@H](C(=O)O)CC2)cc1OC1CCCC1` [CILOMILAST], for which the pIC50 is 6.54 in assay [1], 5.21 in assay [2] and 5.44 in assay [4]. Further, the inhibition in vivo at 10 mg/kg in assay [6] was found to be 59.4%.
As to `COc1ccc(C2CNC(=O)C2)cc1OC1CCCC1` (stereo not given) [ROLIPRAM], the negative-log IC50 (pIC50) in assay [1] was 6.51; in assay [4] it was 5.91. In assay [5], this compound came in with an inhibition in vivo at 1 mg/kg of 68%.
